# Biological target: T1, RibU W97Y labeled with 5,7diFW (Lactococcus lactis subsp. cremoris, UniProt D8KIE9, W97Y)
# T1 construct: His10; made in house; host or cells: Lactococcus lactis Trp auxotroph NZ9000-trp with pMG36e-trpRS
# Assay: Fluorescence titration of RibU with RBF, 5,7diFW variant
# Format: binding
# Procedure: Fluorescence titration experiments of the different RibU constructs with RBF at 20 °C allowed estimation of the impact of W68 fluorination or 5-methylation on the binding affinity (Figure 3 and Table 5).
# Figure 3 Titration of Trp analog labeled RibU W97Y proteins with RBF. The RBF fluorescence was measured at the indicated RBF concentrations in the absence (triangles) or presence (dots) of the W97Y RibU variant (see insets). The difference between these two signals were calculated to build the titration curve. This curve was used to compute the RBF Kd (see Experimental Section in the Supporting Information). […]
# Binding assays – Fluorescence titrations of RibU with RBF.
# The concentration of the riboflavin stock was established using a Jasco V-650 spectrophotometer with an ε435 of 12600 M-1.cm-1 The concentration of RibU-His was calculated using a Nanodrop (Thermo […]
# Riboflavin was excited at 435 nm and emission was recorded between 450 nm and 700 nm using a FluoroLog 322 Spectrofluorometer (Jobin Yvon). […] Titration experiments were performed in a 1 mL quartz cuvette at 20 °C as described.13 In brief, purified and desalted RibU protein in gel filtration buffer was titrated with RBF and after each addition the emission spectrum was recorded twice, corrected for buffer emission and instrument response and integrated. […]
# T1 sequence (D8KIE9 whole entry W97Y): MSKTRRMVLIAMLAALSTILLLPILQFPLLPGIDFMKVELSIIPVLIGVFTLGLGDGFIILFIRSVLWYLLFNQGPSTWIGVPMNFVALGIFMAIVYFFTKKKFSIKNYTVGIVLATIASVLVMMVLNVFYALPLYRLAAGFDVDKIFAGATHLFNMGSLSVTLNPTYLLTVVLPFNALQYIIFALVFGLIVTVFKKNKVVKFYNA
smiles,measurement,value
"Cc1cc2nc3c(=O)[nH]c(=O)nc-3n(C[C@H](O)[C@H](O)[C@H](O)CO)c2cc1C [RBF, riboflavin]",Kd,8.2 ± 0.9 nM
